Source: patent US20070101445A1, “Transgenic mice carrying the HP-2 gene and uses as models for vascular diseases” (priority 2005, published 2007)

Key:
Hp 0 mice = experiment: Chronic supplementation with vitamin E, renal hypertrophy in Hp 0 mice; type: in vivo, mouse
Method: (§1) Chronic supplementation with vitamin E. Wild-type or Hp 0 mice (n=5 in each group) were treated for 7 months with placebo (water) or vitamin E (Merck, racemic alpha-tocopherol acetate) at a concentration of 40 mg/kg/day administered daily in the drinking water from 4 weeks of age.
(§2) Preparation of renal tissue for morphometric and histochemical analysis. Mice were sacrificed with intraperitoneal injection of pentabarbitone sodium. Kidneys were excised and weighed and the half-middle portion was fixed in 4% buffered BP formaldehyde solution (Gadot, Netanya, Israel) and embedded in paraffin. For both the morphometric and histochemical analysis, there were four mice in each of the six groups (wild type, Hp 0, and Hp 2, with and without diabetes).
(§3) Statistical analysis. Values are reported as the mean±SEM. Comparisons between groups were performed using two-way ANOVA under a general linear model, with Hp phenotype as one factor and time, presence of diabetes, or treatment with vitamin E as the second factor. Pairwise comparisons were carried out using the Fisher's protected least significant difference (PLSD) test. A p-value of less than 0.05 was taken as being statistically significant. Statistical analyses were performed using the SPSS statistical software version 11.5 (Chicago, Ill.). […]

Wild-type mice = experiment: Chronic supplementation with vitamin E, renal mass in wild-type mice; type: in vivo, mouse; conditions: WT mice, 40 mg/kg/day vitamin E orally from 4 weeks, sacrificed at 8 months, mean±SEM, n=5
Method: as §1, §2, §3

CC(=O)Oc1c(C)c(C)c2c(c1C)CC[C@@](C)(CCC[C@H](C)CCC[C@H](C)CCCC(C)C)O2 (racemic) [Vitamin E, racemic alpha-tocopherol acetate]
RM/BM (renal mass normalized for body weight) (Hp 0 mice; 40 mg/kg/day vitamin E orally from 4 weeks, sacrificed at 8 months, mean±SEM, n=5): 11.01 ± 0.24 mg/g
renal mass in Hp 0 animals receiving vitamin E compared to Hp 0 mice who did not receive vitamin E (Hp 0 mice; vitamin E for 7 months): reduced
RM/BM (renal mass normalized for body weight) (Wild-type mice): 11.42 ± 0.98 mg/g
